Results: US6476254B1, “Alkoxylated fatty alcohol dicarboxylic acid esters” (Croda Inc., priority 1998, dated 2002)

Assays:
[1] = Pigment wetting: viscosity of ester/pigment slurry; type: physicochemical; conditions: for viscosity (pigment wetting): FIG. 1B, dye slurry, 65% ester, 35% pigment, after standing five minutes
Procedure: Pigment wetting properties are determined by preparing a dye slurry and measuring viscosity. For example, a slurry can be prepared using an alkoxylated fatty alcohol dicarboxylic acid ester of the present invention mixed with 35 percent mica or any dye. The viscosity of the slurry is determined after allowing the slurry to stand for five minutes. The lower the viscosity, the better the pigment wetting properties of the ester. Desirably, in accordance with the present invention, viscosity of the resulting dye slurry will be below about 20,000 cps, preferably between about 500 and 15,000 cps and most preferably between about 500 and 5,000 cps based on a 65% ester, 35% pigment mixture (measured in weight percent). Viscosity will vary if a different testing mixture is used.

[2] = Skin spread factor (product spread on forearm circle, 15 minutes, FD&C Blue No. 1 staining); type: in vivo; conditions: resulting area divided by initial area after fifteen minute spread; FIG. 1A
Procedure: The skin spread factor is determined by applying, for example, 5 microliters of a product to a 3.14 cm diameter circle on the volar surface of the forearm. The product is spread evenly within the circle and allowed to spread for a fifteen minute period. The test site and surrounding area of the forearm is then sprayed with a 1 percent solution of FD&C Blue No. 1. The area not stained by the blue dye indicates the area onto which the product spread. The skin spread factor is obtained by dividing the resulting area by the initial area. In accordance with the present invention, formulations have a skin spread factor of less than about 8, preferably less than about 5.

Compound | viscosity (pigment wetting) [1] | skin spread factor [2] | viscosity ([1]; test mixture not stated at this place)
CCCCCCCC/C=C\CCCCCCCCCCCC(=O)OCCCCCCCCCCCCCCCCCCCCCCCC [LGE, Lignoceryl Erucate] | > 15,000 cps | relatively low | 
CCCCCCCCCCCCCOC(=O)C(C)(C)C [TDNP, Tridecyl Neopentanoate] | under 1000 cps | very high | 
Bis (PPG2, PEG10 Myristyl) adipate |  | 2.9 | 18,000 cps
Di-PPG-3 Myristyl Ether Adipate [DP3A] | about 1200 cps | about 3.8 | 
Pentaerythrityl Tetraisostearate [PTIS] | ~20,000 cps | very low | 
